System: SW620
Experiment: cell viability relative to vehicle (resazurin, 96 h); higher = more viable
Procedure: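 SW620 WT or MTHFD2-/- cells were treated for 96 h with a compound dilution series (log10 M) in RPMI with normal or dialysed FBS. Viability was read by resazurin and is given as % of vehicle.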

CN(Cc1cnc2nc(N)nc(N)c2n1)c1ccc(C(=O)N[C@@H](CCC(=O)O)C(=O)O)cc1 [methotrexate]
Settings	cell viability [%]
log10 compound concentration (M): -5, supplement / serum: Hypoxanthine + AICAr 10μM, base medium: RPMI + dialysed FBS	5.12
log10 compound concentration (M): -5, supplement / serum: Hypoxanthine + AICAr 30μM, base medium: RPMI + dialysed FBS	4.87
log10 compound concentration (M): -5, supplement / serum: Hypoxanthine + AICAr 50μM, base medium: RPMI + dialysed FBS	5.34
log10 compound concentration (M): -5, supplement / serum: Hypoxanthine + AICAr 100μM, base medium: RPMI + dialysed FBS	5.12
log10 compound concentration (M): -5, supplement / serum: Hypoxanthine, base medium: RPMI + dialysed FBS	4.67
log10 compound concentration (M): -5, supplement / serum: RPMI + Dialyzed FBS + 50μM Hypoxanthine, base medium: RPMI-1640	6.47
log10 compound concentration (M): -5, supplement / serum: RPMI + Dialyzed FBS, base medium: RPMI-1640	5.07
log10 compound concentration (M): -5, supplement / serum: RPMI + Normal FBS, base medium: RPMI-1640	19.1
log10 compound concentration (M): -5, supplement / serum: Vehicle, base medium: RPMI + dialysed FBS	4.01
log10 compound concentration (M): -5.47712, supplement / serum: Hypoxanthine + AICAr 10μM, base medium: RPMI + dialysed FBS	5.68
log10 compound concentration (M): -5.47712, supplement / serum: Hypoxanthine + AICAr 30μM, base medium: RPMI + dialysed FBS	4.86
log10 compound concentration (M): -5.47712, supplement / serum: Hypoxanthine + AICAr 50μM, base medium: RPMI + dialysed FBS	6.17
log10 compound concentration (M): -5.47712, supplement / serum: Hypoxanthine + AICAr 100μM, base medium: RPMI + dialysed FBS	5.44
log10 compound concentration (M): -5.47712, supplement / serum: Hypoxanthine, base medium: RPMI + dialysed FBS	5.19
log10 compound concentration (M): -5.47712, supplement / serum: RPMI + Dialyzed FBS + 50μM Hypoxanthine, base medium: RPMI-1640	7.16
log10 compound concentration (M): -5.47712, supplement / serum: RPMI + Dialyzed FBS, base medium: RPMI-1640	5.32
log10 compound concentration (M): -5.47712, supplement / serum: RPMI + Normal FBS, base medium: RPMI-1640	22.3
log10 compound concentration (M): -5.47712, supplement / serum: Vehicle, base medium: RPMI + dialysed FBS	3.96
log10 compound concentration (M): -5.95424, supplement / serum: Hypoxanthine + AICAr 10μM, base medium: RPMI + dialysed FBS	6.05
log10 compound concentration (M): -5.95424, supplement / serum: Hypoxanthine + AICAr 30μM, base medium: RPMI + dialysed FBS	4.88
log10 compound concentration (M): -5.95424, supplement / serum: Hypoxanthine + AICAr 50μM, base medium: RPMI + dialysed FBS	6.61
log10 compound concentration (M): -5.95424, supplement / serum: Hypoxanthine + AICAr 100μM, base medium: RPMI + dialysed FBS	6.46
log10 compound concentration (M): -5.95424, supplement / serum: Hypoxanthine, base medium: RPMI + dialysed FBS	4.87
log10 compound concentration (M): -5.95424, supplement / serum: RPMI + Dialyzed FBS + 50μM Hypoxanthine, base medium: RPMI-1640	7.47
log10 compound concentration (M): -5.95424, supplement / serum: RPMI + Dialyzed FBS, base medium: RPMI-1640	5.35
log10 compound concentration (M): -5.95424, supplement / serum: RPMI + Normal FBS, base medium: RPMI-1640	14.7
log10 compound concentration (M): -5.95424, supplement / serum: Vehicle, base medium: RPMI + dialysed FBS	4.17
log10 compound concentration (M): -6.43136, supplement / serum: Hypoxanthine + AICAr 10μM, base medium: RPMI + dialysed FBS	6.29
log10 compound concentration (M): -6.43136, supplement / serum: Hypoxanthine + AICAr 30μM, base medium: RPMI + dialysed FBS	5.47
log10 compound concentration (M): -6.43136, supplement / serum: Hypoxanthine + AICAr 50μM, base medium: RPMI + dialysed FBS	7.05
log10 compound concentration (M): -6.43136, supplement / serum: Hypoxanthine + AICAr 100μM, base medium: RPMI + dialysed FBS	6.81
log10 compound concentration (M): -6.43136, supplement / serum: Hypoxanthine, base medium: RPMI + dialysed FBS	5.56
log10 compound concentration (M): -6.43136, supplement / serum: RPMI + Dialyzed FBS + 50μM Hypoxanthine, base medium: RPMI-1640	7.77
log10 compound concentration (M): -6.43136, supplement / serum: RPMI + Dialyzed FBS, base medium: RPMI-1640	4.63
log10 compound concentration (M): -6.43136, supplement / serum: RPMI + Normal FBS, base medium: RPMI-1640	17
log10 compound concentration (M): -6.43136, supplement / serum: Vehicle, base medium: RPMI + dialysed FBS	4.16
log10 compound concentration (M): -6.90849, supplement / serum: Hypoxanthine + AICAr 10μM, base medium: RPMI + dialysed FBS	7.03
log10 compound concentration (M): -6.90849, supplement / serum: Hypoxanthine + AICAr 30μM, base medium: RPMI + dialysed FBS	5.61
log10 compound concentration (M): -6.90849, supplement / serum: Hypoxanthine + AICAr 50μM, base medium: RPMI + dialysed FBS	6.93
log10 compound concentration (M): -6.90849, supplement / serum: Hypoxanthine + AICAr 100μM, base medium: RPMI + dialysed FBS	6.51
log10 compound concentration (M): -6.90849, supplement / serum: Hypoxanthine, base medium: RPMI + dialysed FBS	5.78
log10 compound concentration (M): -6.90849, supplement / serum: RPMI + Dialyzed FBS + 50μM Hypoxanthine, base medium: RPMI-1640	8.66
log10 compound concentration (M): -6.90849, supplement / serum: RPMI + Dialyzed FBS, base medium: RPMI-1640	5.1
log10 compound concentration (M): -6.90849, supplement / serum: RPMI + Normal FBS, base medium: RPMI-1640	20.5
log10 compound concentration (M): -6.90849, supplement / serum: Vehicle, base medium: RPMI + dialysed FBS	4.6
log10 compound concentration (M): -7.38561, supplement / serum: Hypoxanthine + AICAr 10μM, base medium: RPMI + dialysed FBS	15.3
log10 compound concentration (M): -7.38561, supplement / serum: Hypoxanthine + AICAr 30μM, base medium: RPMI + dialysed FBS	7.88
log10 compound concentration (M): -7.38561, supplement / serum: Hypoxanthine + AICAr 50μM, base medium: RPMI + dialysed FBS	10.8
log10 compound concentration (M): -7.38561, supplement / serum: Hypoxanthine + AICAr 100μM, base medium: RPMI + dialysed FBS	9.102
log10 compound concentration (M): -7.38561, supplement / serum: Hypoxanthine, base medium: RPMI + dialysed FBS	14.7
log10 compound concentration (M): -7.38561, supplement / serum: RPMI + Dialyzed FBS + 50μM Hypoxanthine, base medium: RPMI-1640	24.7
log10 compound concentration (M): -7.38561, supplement / serum: RPMI + Dialyzed FBS, base medium: RPMI-1640	5.71
log10 compound concentration (M): -7.38561, supplement / serum: RPMI + Normal FBS, base medium: RPMI-1640	42.8
log10 compound concentration (M): -7.38561, supplement / serum: Vehicle, base medium: RPMI + dialysed FBS	4.77
log10 compound concentration (M): -7.86273, supplement / serum: Hypoxanthine + AICAr 10μM, base medium: RPMI + dialysed FBS	103
log10 compound concentration (M): -7.86273, supplement / serum: Hypoxanthine + AICAr 30μM, base medium: RPMI + dialysed FBS	75.9
log10 compound concentration (M): -7.86273, supplement / serum: Hypoxanthine + AICAr 50μM, base medium: RPMI + dialysed FBS	65.1
log10 compound concentration (M): -7.86273, supplement / serum: Hypoxanthine + AICAr 100μM, base medium: RPMI + dialysed FBS	39.1
log10 compound concentration (M): -7.86273, supplement / serum: Hypoxanthine, base medium: RPMI + dialysed FBS	92.6
log10 compound concentration (M): -7.86273, supplement / serum: RPMI + Dialyzed FBS + 50μM Hypoxanthine, base medium: RPMI-1640	85
log10 compound concentration (M): -7.86273, supplement / serum: RPMI + Dialyzed FBS, base medium: RPMI-1640	15.5
log10 compound concentration (M): -7.86273, supplement / serum: RPMI + Normal FBS, base medium: RPMI-1640	53.8
log10 compound concentration (M): -7.86273, supplement / serum: Vehicle, base medium: RPMI + dialysed FBS	10.7
log10 compound concentration (M): -8.33985, supplement / serum: Hypoxanthine + AICAr 10μM, base medium: RPMI + dialysed FBS	117
log10 compound concentration (M): -8.33985, supplement / serum: Hypoxanthine + AICAr 30μM, base medium: RPMI + dialysed FBS	93.6
log10 compound concentration (M): -8.33985, supplement / serum: Hypoxanthine + AICAr 50μM, base medium: RPMI + dialysed FBS	119.7
log10 compound concentration (M): -8.33985, supplement / serum: Hypoxanthine + AICAr 100μM, base medium: RPMI + dialysed FBS	92.9
log10 compound concentration (M): -8.33985, supplement / serum: Hypoxanthine, base medium: RPMI + dialysed FBS	99.3
log10 compound concentration (M): -8.33985, supplement / serum: RPMI + Dialyzed FBS + 50μM Hypoxanthine, base medium: RPMI-1640	99.18
log10 compound concentration (M): -8.33985, supplement / serum: RPMI + Dialyzed FBS, base medium: RPMI-1640	72.4
log10 compound concentration (M): -8.33985, supplement / serum: RPMI + Normal FBS, base medium: RPMI-1640	95.4
log10 compound concentration (M): -8.33985, supplement / serum: Vehicle, base medium: RPMI + dialysed FBS	109
log10 compound concentration (M): -8.81697, supplement / serum: Hypoxanthine + AICAr 10μM, base medium: RPMI + dialysed FBS	117
log10 compound concentration (M): -8.81697, supplement / serum: Hypoxanthine + AICAr 30μM, base medium: RPMI + dialysed FBS	98.4
log10 compound concentration (M): -8.81697, supplement / serum: Hypoxanthine + AICAr 50μM, base medium: RPMI + dialysed FBS	108
log10 compound concentration (M): -8.81697, supplement / serum: Hypoxanthine + AICAr 100μM, base medium: RPMI + dialysed FBS	90.3
log10 compound concentration (M): -8.81697, supplement / serum: Hypoxanthine, base medium: RPMI + dialysed FBS	100
log10 compound concentration (M): -8.81697, supplement / serum: RPMI + Dialyzed FBS + 50μM Hypoxanthine, base medium: RPMI-1640	102

Reference: the supplement of paper PMC10132981, “Formate overflow drives toxic folate trapping in MTHFD1 inhibited cancer cells” (Nature Metabolism, 2023)
